Source: ChEMBL document CHEMBL3885881, “DrugMatrix”

Species: Rattus norvegicus
Test: DrugMatrix - Regimen: Daily Repeat
Type: toxicity, organism-based, Sprague-Dawley
Parameters: regimen Daily Repeat, gender Male, age 6-8 weeks
Conditions: in vivo, po, route oral GAVAGE, vehicle 100 % WATER; for ABSOLUTE BASOPHIL / ABSOLUTE EOSINOPHIL / ABSOLUTE LYMPHOCYTE / ABSOLUTE MONOCYTE / ABSOLUTE SEGMENTED NEUTROPHIL / BASOPHIL / EOSINOPHIL / ERYTHROCYTE COUNT / HEMATOCRIT / HEMOGLOBIN / LEUKOCYTE COUNT / LYMPHOCYTE / MEAN CORPUSCULAR HEMOGLOBIN / MEAN CORPUSCULAR HEMOGLOBIN CONCENTRATION / MEAN CORPUSCULAR VOLUME / MONOCYTE / NEUTROPHIL / NUCLEATED RED BLOOD CELLS / PLATELET COUNT: tissue Blood; for ALANINE AMINOTRANSFERASE / ALBUMIN / ALKALINE PHOSPHATASE / ASPARTATE AMINOTRANSFERASE / BLOOD UREA NITROGEN / CARBON DIOXIDE / CHLORIDE / CHOLESTEROL / CREATINE PHOSPHOKINASE / CREATININE / GLUCOSE / LACTATE DEHYDROGENASE / LIPASE / PHOSPHORUS / POTASSIUM / SODIUM / TOTAL BILIRUBIN / TOTAL PROTEIN / URIC ACID: tissue Plasma
[1] = 0 mg/kg, 72 h, dose level Control, time 3 day
[2] = 0 mg/kg, 120 h, dose level Control, time 5 day
[3] = 3 mg/kg, 72 h, dose level Low, time 3 day

CN(C)CC[C@@H](c1ccc(Cl)cc1)c1ccccn1 [DEXCHLORPHENIRAMINE]
ABSOLUTE BASOPHIL [1]: 0 CELLS/uL | ABSOLUTE EOSINOPHIL [1]: 58.83 CELLS/uL | ABSOLUTE LYMPHOCYTE [1]: 11823.5 CELLS/uL | ABSOLUTE MONOCYTE [1]: 169 CELLS/uL | ABSOLUTE SEGMENTED NEUTROPHIL [1]: 815.33 CELLS/uL | BASOPHIL [1]: 0% | EOSINOPHIL [1]: 0.5% | ERYTHROCYTE COUNT [1]: 5.52 x10E6/uL | HEMATOCRIT [1]: 35.77% | HEMOGLOBIN [1]: 14.28 G/DL | LEUKOCYTE COUNT [1]: 12.87 x10E3/uL | LYMPHOCYTE [1]: 91.67% | MEAN CORPUSCULAR HEMOGLOBIN [1]: 25.92 pg | MEAN CORPUSCULAR HEMOGLOBIN CONCENTRATION [1]: 39.95 G/DL | MEAN CORPUSCULAR VOLUME [1]: 64.85 fL | MONOCYTE [1]: 1.33% | NEUTROPHIL [1]: 6.5% | NUCLEATED RED BLOOD CELLS [1]: 0 /100WBC | PLATELET COUNT [1]: 1246.17 x10E3/uL | ALANINE AMINOTRANSFERASE [1]: 66 u/L | ALBUMIN [1]: 4.25 G/DL | ALKALINE PHOSPHATASE [1]: 416 u/L | ASPARTATE AMINOTRANSFERASE [1]: 106.17 u/L | BLOOD UREA NITROGEN [1]: 12.67 mg/dL | CARBON DIOXIDE [1]: 31.83 mmol/L | CHLORIDE [1]: 102.5 MEQ/L | CHOLESTEROL [1]: 69 mg/dL | CREATINE PHOSPHOKINASE [1]: 601.83 u/L | CREATININE [1]: 0.18 mg/dL | GLUCOSE [1]: 154.5 mg/dL | LACTATE DEHYDROGENASE [1]: 301.83 u/L | LIPASE [1]: 11.17 u/L | PHOSPHORUS [1]: 12.08 mg/dL | POTASSIUM [1]: 6.12 MEQ/L | SODIUM [1]: 145.2 MEQ/L | TOTAL BILIRUBIN [1]: 0.17 mg/dL | TOTAL PROTEIN [1]: 6.1 G/DL | URIC ACID [1]: 1.57 mg/dL | ABSOLUTE BASOPHIL [2]: 0 CELLS/uL | ABSOLUTE EOSINOPHIL [2]: 19.33 CELLS/uL | ABSOLUTE LYMPHOCYTE [2]: 12577.83 CELLS/uL | ABSOLUTE MONOCYTE [2]: 106.33 CELLS/uL | ABSOLUTE SEGMENTED NEUTROPHIL [2]: 896.5 CELLS/uL | BASOPHIL [2]: 0% | EOSINOPHIL [2]: 0.17% | ERYTHROCYTE COUNT [2]: 5.84 x10E6/uL | HEMATOCRIT [2]: 36.88% | HEMOGLOBIN [2]: 14.48 G/DL | LEUKOCYTE COUNT [2]: 13.6 x10E3/uL | LYMPHOCYTE [2]: 92.17% | MEAN CORPUSCULAR HEMOGLOBIN [2]: 24.85 pg | MEAN CORPUSCULAR HEMOGLOBIN CONCENTRATION [2]: 39.3 G/DL | MEAN CORPUSCULAR VOLUME [2]: 63.23 fL | MONOCYTE [2]: 0.83% | NEUTROPHIL [2]: 6.83% | NUCLEATED RED BLOOD CELLS [2]: 0 /100WBC | PLATELET COUNT [2]: 1223.5 x10E3/uL | ALANINE AMINOTRANSFERASE [2]: 55.33 u/L | ALBUMIN [2]: 4.08 G/DL | ALKALINE PHOSPHATASE [2]: 355.5 u/L | ASPARTATE AMINOTRANSFERASE [2]: 87.67 u/L | BLOOD UREA NITROGEN [2]: 15.33 mg/dL | CARBON DIOXIDE [2]: 33.83 mmol/L | CHLORIDE [2]: 99.67 MEQ/L | CHOLESTEROL [2]: 72.17 mg/dL | CREATINE PHOSPHOKINASE [2]: 268.33 u/L | CREATININE [2]: 0.15 mg/dL | GLUCOSE [2]: 152.5 mg/dL | LACTATE DEHYDROGENASE [2]: 212.67 u/L | LIPASE [2]: 10.83 u/L | PHOSPHORUS [2]: 11.65 mg/dL | POTASSIUM [2]: 6.73 MEQ/L | SODIUM [2]: 142.43 MEQ/L | TOTAL BILIRUBIN [2]: 0.23 mg/dL | TOTAL PROTEIN [2]: 6.07 G/DL | URIC ACID [2]: 1.7 mg/dL | ABSOLUTE BASOPHIL [3]: 0 CELLS/uL | ABSOLUTE EOSINOPHIL [3]: 76 CELLS/uL | ABSOLUTE LYMPHOCYTE [3]: 10621.67 CELLS/uL | ABSOLUTE MONOCYTE [3]: 75 CELLS/uL | ABSOLUTE SEGMENTED NEUTROPHIL [3]: 960.67 CELLS/uL | BASOPHIL [3]: 0% | EOSINOPHIL [3]: 0.67% | ERYTHROCYTE COUNT [3]: 5.43 x10E6/uL | HEMATOCRIT [3]: 35.8% | HEMOGLOBIN [3]: 14.27 G/DL | LEUKOCYTE COUNT [3]: 11.73 x10E3/uL | LYMPHOCYTE [3]: 90.33% | MEAN CORPUSCULAR HEMOGLOBIN [3]: 26.27 pg | MEAN CORPUSCULAR HEMOGLOBIN CONCENTRATION [3]: 39.83 G/DL | MEAN CORPUSCULAR VOLUME [3]: 65.9 fL | MONOCYTE [3]: 0.67% | NEUTROPHIL [3]: 8.33% | NUCLEATED RED BLOOD CELLS [3]: 0 /100WBC | PLATELET COUNT [3]: 1343.33 x10E3/uL | ALANINE AMINOTRANSFERASE [3]: 45.67 u/L | ALBUMIN [3]: 4.17 G/DL | ALKALINE PHOSPHATASE [3]: 363.67 u/L | ASPARTATE AMINOTRANSFERASE [3]: 81 u/L | BLOOD UREA NITROGEN [3]: 12.67 mg/dL | CARBON DIOXIDE [3]: 31.67 mmol/L | CHLORIDE [3]: 102.33 MEQ/L | CHOLESTEROL [3]: 64 mg/dL | CREATINE PHOSPHOKINASE [3]: 265.33 u/L | CREATININE [3]: 0.26 mg/dL | GLUCOSE [3]: 152.33 mg/dL | LACTATE DEHYDROGENASE [3]: 198 u/L | LIPASE [3]: 13.33 u/L | PHOSPHORUS [3]: 13.23 mg/dL | POTASSIUM [3]: 6.5 MEQ/L | SODIUM [3]: 145.03 MEQ/L | TOTAL BILIRUBIN [3]: 0.13 mg/dL | TOTAL PROTEIN [3]: 5.87 G/DL | URIC ACID [3]: 1.57 mg/dL
